# Earlier results in patent US20210350875A1, “HIGH THROUGHPUT METHOD AND SYSTEM FOR MAPPING INT[…] DIAGRAMS” (The Trustees of Princeton University, priority 2018, published 2021).
# Tested on: phase separation
# Conditions: positive control agent, 10 wells, FIG. 2B
substance,measurement,value
hexanediol,inhibition of phase separation,fully inhibit phase separation
